Data from patent US7396837B2, “Antitumoral analogs of lamellarins” (Pharma Mar, S.A.U., priority 2002, dated 2008).
Where two headings read alike, the source gives them in different places.

Columns and labels:
Type in all cases: cell-based
[1] = tested on: A-549; assay: SRB colorimetric cell growth inhibition assay, A-549; conditions: for GI50: GI=growth inhibition, read-out: GI50 A-549; for CC50: cell killing (cytotoxic effect), read-out: LC50 A-549; for IC (TGI): read-out: TGI A-549
From the text: (§1) The finality of these assays is to interrupt the growth of an “in vitro” tumor cell culture by means a continued exhibition of the cells to the sample to be testing.
(§2) A colorimetric type of assay, using sulforhodamine B (SRB) reaction has been adapted for a quantitative measurement of cell growth and viability (following the technique described by P. A. Skehan, et al., J. Natl. Cancer Inst. 1990, 82, 1107-1112).
(§3) This form of assay employs 96 well cell culture microplates of 9 mm diameter (T. Mosmann et al., J. of Immunological Methods 1983, 65, 55-63; G. T. Faircloth et al., J. of Tissue and Culture Methods 1988, 11, 201-205).
(§4) Most of the cell lines are obtained from American Type Culture Collection (ATCC) derived from different human cancer types.
(§5) The values for mean +/− SD of data from triplicate wells are calculated. Some parameters for cellular responses can be calculated: GI=growth inhibition, TGI=total growth inhibition (cytostatic effect) and LC=cell killing (cytotoxic effect).

[2] = tested on: SK-MEL-28; assay: SRB colorimetric cell growth inhibition assay, SK-MEL-28; conditions: for GI50: GI=growth inhibition, read-out: GI50 MEL-28; for CC50: cell killing (cytotoxic effect), read-out: LC50 MEL-28; for IC (TGI): read-out: TGI MEL-28
From the text: as §1, §2, §3, §4, §5

[3] = tested on: HT-29; assay: SRB colorimetric cell growth inhibition assay, HT-29; conditions: for GI50: GI=growth inhibition, read-out: GI50 HT-29; for CC50: cell killing (cytotoxic effect), read-out: LC50 HT-29; for IC (TGI): read-out: TGI HT-29
From the text: as §1, §2, §3, §4, §5

[4] = tested on: LoVo; assay: SRB colorimetric cell growth inhibition assay, LoVo; conditions: for GI50: GI=growth inhibition, read-out: GI50 LOVO; for CC50: cell killing (cytotoxic effect), read-out: LC50 LOVO; for IC (TGI): read-out: TGI LOVO
From the text: as §1, §2, §3, §4, §5

[5] = tested on: LoVo-Dox; assay: SRB colorimetric cell growth inhibition assay, LoVo-Dox (MDR); conditions: LOVO-DOX; for GI50: GI=growth inhibition, read-out: GI50 LOVO-DOX; for CC50: cell killing (cytotoxic effect), read-out: LC50 LOVO-DOX; for IC (TGI): read-out: TGI LOVO-DOX
From the text: as §1, §2, §3, §4, §5

[6] = tested on: DU-145; assay: SRB colorimetric cell growth inhibition assay, DU-145; conditions: for GI50: GI=growth inhibition, read-out: GI50 DU-145; for CC50: cell killing (cytotoxic effect), read-out: LC50 DU-145; for IC (TGI): read-out: TGI DU-145
From the text: as §1, §2, §3, §4, §5

[7] = tested on: SK-BR-3; assay: SRB colorimetric cell growth inhibition assay, SK-BR-3; conditions: for GI50: GI=growth inhibition, read-out: GI50 SK-BR-3; for CC50: cell killing (cytotoxic effect), read-out: LC50 SK-BR-3; for IC (TGI): read-out: TGI SK-BR-3
From the text: as §1, §2, §3, §4, §5

[8] = tested on: IGROV; assay: SRB colorimetric cell growth inhibition assay, IGROV; conditions: IGROV; for GI50: GI=growth inhibition, read-out: GI50 IGROV; for CC50: cell killing (cytotoxic effect), read-out: LC50 IGROV; for IC (TGI): read-out: TGI IGROV
From the text: as §1, §2, §3, §4, §5

[9] = tested on: IGROV-ET; assay: SRB colorimetric cell growth inhibition assay, IGROV-ET (ET-743 resistant); conditions: IGROV-ET; for GI50: GI=growth inhibition, read-out: GI50 IGROV-ET; for CC50: cell killing (cytotoxic effect), read-out: LC50 IGROV-ET; for IC (TGI): read-out: TGI IGROV-ET
From the text: as §1, §2, §3, §4, §5

[10] = tested on: HeLa; assay: SRB colorimetric cell growth inhibition assay, HeLa; conditions: Homo sapiens, HeLa; for GI50: GI=growth inhibition, read-out: GI50 HELA; for CC50: cell killing (cytotoxic effect), read-out: LC50 HELA; for IC (TGI): total growth inhibition (cytostatic effect), read-out: TGI HELA
From the text: as §1, §2, §3, §4, §5

[11] = tested on: HeLa-APL; assay: SRB colorimetric cell growth inhibition assay, HeLa-APL (aplidine resistant); conditions: Homo sapiens, HELA-APL; for GI50: GI=growth inhibition, read-out: GI50 HELA-APL; for CC50: cell killing (cytotoxic effect), read-out: LC50 HELA-APL; for IC (TGI): total growth inhibition (cytostatic effect), read-out: TGI HELA-APL
From the text: as §1, §2, §3, §4, §5

[12] = tested on: PANC-1; assay: SRB colorimetric cell growth inhibition assay, PANC-1; conditions: for GI50: GI=growth inhibition, read-out: GI50 PANC-1; for CC50: cell killing (cytotoxic effect), read-out: LC50 PANC-1; for IC (TGI): read-out: TGI PANC-1
From the text: as §1, §2, §3, §4, §5

[13] = Homo sapiens, A549, A-549, total growth inhibition (cytostatic effect)
[14] = Homo sapiens, SK-MEL-28, MEL-28
[15] = Homo sapiens, SK-MEL-28, MEL-28, total growth inhibition (cytostatic effect)
[16] = Homo sapiens, HT-29, HT-29, total growth inhibition (cytostatic effect)
[17] = Homo sapiens, LoVo, total growth inhibition (cytostatic effect)
[18] = Homo sapiens, total growth inhibition (cytostatic effect)
[19] = Homo sapiens, DU-145, DU-145, total growth inhibition (cytostatic effect)
[20] = Homo sapiens, SK-BR-3, SK-BR-3, total growth inhibition (cytostatic effect)
[21] = Homo sapiens, PANC-1, PANC-1, total growth inhibition (cytostatic effect)
[22] = total growth inhibition (cytostatic effect)

## COc1cc2ccn3c(c(-c4ccc(OC(=O)[C@H](C)N)c(OC)c4)c4c5cc(OC)c(OC(=O)[C@H](C)N)cc5oc(=O)c43)c2cc1OC [Compound 20]
[1]; Homo sapiens, A549, A-549
  GI50: 0.589 µM
  CC50: 15.3 µM
[1]; [13]
  IC (TGI): 15.3 µM
[2]; [14]
  GI50: 2.24 µM
  CC50: 15.3 µM
[2]; [15]
  IC (TGI): 15.3 µM
[3]; Homo sapiens, HT-29, HT-29
  GI50: 3.58 µM
  CC50: 15.3 µM
[3]; [16]
  IC (TGI): 15.3 µM
[4]; Homo sapiens, LoVo
  GI50: 0.436 µM
  CC50: 15.3 µM
[4]; [17]
  IC (TGI): 8.83 µM
[5]; Homo sapiens
  GI50: 0.525 µM
  CC50: 15.3 µM
[5]; [18]
  IC (TGI): 2.06 µM
[6]; Homo sapiens, DU-145, DU-145
  GI50: 0.5 µM
  CC50: 15.3 µM
[6]; [19]
  IC (TGI): 2.36 µM
[7]; Homo sapiens, SK-BR-3, SK-BR-3
  GI50: 0.0548 µM
  CC50: 15.3 µM
[7]; [20]
  IC (TGI): 0.238 µM
[8]; Homo sapiens
  GI50: 0.516 µM
  CC50: 15.3 µM
[8]; [18]
  IC (TGI): 7.46 µM
[9]; Homo sapiens
  GI50: 0.593 µM
  CC50: 15.3 µM
[9]; [18]
  IC (TGI): 15.3 µM
[10]
  GI50: 1.17 µM
  CC50: 15.3 µM
  IC (TGI): 15.3 µM
[11]
  GI50: 2.09 µM
  CC50: 15.3 µM
  IC (TGI): 15.3 µM
[12]; Homo sapiens, PANC-1, PANC-1
  GI50: 1.24 µM
  CC50: 15.3 µM
[12]; [21]
  IC (TGI): 15.3 µM

## COc1cc(-c2c3c4cc(OC)c(OC(C)C)cc4oc(=O)c3n3ccc4c(OC(C)C)c(OC)c(OC)cc4c23)ccc1OC(C)C [Compound 27]
[1]; Homo sapiens, A549, A-549
  GI50: 5.49 µM
  CC50: 15.2 µM
[1]; [13]
  IC (TGI): 15.2 µM
[2]; [14]
  GI50: 4.47 µM
  CC50: 15.2 µM
[2]; [15]
  IC (TGI): 9.35 µM
[3]; Homo sapiens, HT-29, HT-29
  GI50: 0.144 µM
  CC50: 15.2 µM
[3]; [16]
  IC (TGI): 2.17 µM
[4]; Homo sapiens, LoVo
  GI50: 0.27 µM
  CC50: 15.2 µM
[4]; [17]
  IC (TGI): 2.17 µM
[5]; Homo sapiens
  GI50: 15.2 µM
  CC50: 15.2 µM
[5]; [18]
  IC (TGI): 15.2 µM
[6]; Homo sapiens, DU-145, DU-145
  GI50: 0.976 µM
  CC50: 12.6 µM
[6]; [19]
  IC (TGI): 3.95 µM
[7]; Homo sapiens, SK-BR-3, SK-BR-3
  GI50: 0.881 µM
  CC50: 14.1 µM
[7]; [20]
  IC (TGI): 3.25 µM
[8]; Homo sapiens
  GI50: 1.15 µM
  CC50: 15.2 µM
[8]; [18]
  IC (TGI): 5.06 µM
[9]; Homo sapiens
  GI50: 10.4 µM
  CC50: 15.2 µM
[9]; [18]
  IC (TGI): 15.2 µM
[10]
  GI50: 4.04 µM
  CC50: 15.2 µM
  IC (TGI): 9.47 µM
[11]
  GI50: 13 µM
  CC50: 15.2 µM
  IC (TGI): 15.2 µM
[12]; Homo sapiens, PANC-1, PANC-1
  GI50: 4.41 µM
  CC50: 15.2 µM
[12]; [21]
  IC (TGI): 13 µM

## COc1cc2ccn3c(c(-c4ccc(OC(=O)[C@@H](N)C(C)C)c(OC)c4)c4c5cc(OC)c(OC(=O)[C@@H](N)C(C)C)cc5oc(=O)c43)c2cc1OC [Compound 14]
[1]; A-549
  GI50: 0.555 µM
[1]; A-549, total growth inhibition (cytostatic effect)
  TGI A-549: 1.40E−05 Molar
[2]; MEL-28
  GI50: 1.42 µM
  CC50: 14 µM
[2]; MEL-28, total growth inhibition (cytostatic effect)
  TGI MEL-28: 1.40E−05 Molar
[3]; HT-29
  GI50: 2.47 µM
[3]; HT-29, total growth inhibition (cytostatic effect)
  TGI HT-29: 7.26E−06 Molar
[4]; LOVO
  GI50: 0.597 µM
[4]; LOVO, total growth inhibition (cytostatic effect)
  TGI LOVO: 2.47E−06 Molar
[5]
  GI50: 0.497 µM
[5]; [22]
  TGI LOVO-DOX: 1.45E−06 Molar
[6]; DU-145
  GI50: 0.517 µM
  CC50: 14 µM
[6]; DU-145, total growth inhibition (cytostatic effect)
  TGI DU-145: 2.19E−06 Molar
[7]; SK-BR-3
  GI50: 0.0424 µM
  CC50: 14 µM
[7]; SK-BR-3, total growth inhibition (cytostatic effect)
  TGI SK-BR-3: 9.88E−08 Molar
[8]
  GI50: 0.49 µM
  CC50: 14 µM
[8]; [22]
  TGI IGROV: 2.44E−06 Molar
[9]
  GI50: 0.745 µM
  CC50: 14 µM
[9]; [22]
  TGI IGROV-ET: 4.97E−06 Molar
[10]
  GI50: 1.83 µM
  CC50: 12.4 µM
  IC (TGI): 9.63 µM
[11]
  GI50: 2.6 µM
  CC50: 12.4 µM
  IC (TGI): 12.1 µM
[12]; PANC-1
  GI50: 1.18 µM
[12]; PANC-1, total growth inhibition (cytostatic effect)
  TGI PANC-1: 1.40E−05 Molar
